{"source": "patent US10053485B2", "about": "“Cytotoxic agents that preferentially target leukemia inhibitory factor (LIF) for the treatment of malignancies and as new contraceptive agents” (Evestra, Inc., priority 2015, dated 2018)", "key": {"[1]": {"test_system": "IGROV-1 (Ovarian cancer cells)", "assay": "Short term (72 h) cytotoxicity assay", "assay_type": "cell-based", "conditions": "Homo sapiens; IGROV-1, 72 h cytotoxicity"}, "[2]": {"test_system": "U251 (Glioma)", "assay": "Short term (72 h) cytotoxicity assay", "assay_type": "cell-based, human", "conditions": "Homo sapiens, U-251; U251, 72 h cytotoxicity"}, "[3]": {"test_system": "MDA-MB-435", "assay": "NCI-60 screen, Melanoma panel", "assay_type": "cell-based", "conditions": "Homo sapiens, MDA-MB-435, 48 h"}, "[4]": {"test_system": "HOP-62", "assay": "NCI-60 screen, Non-Small Cell Lung Cancer panel", "assay_type": "cell-based", "conditions": "Homo sapiens, HOP-62, 48 h, read-out: GI50 (log10GI50) (converted)"}, "[5]": {"test_system": "HCT-15", "assay": "NCI-60 screen, Colon Cancer panel", "assay_type": "cell-based", "conditions": "Homo sapiens, HCT-15, 48 h"}, "[6]": {"test_system": "SK-MEL-28", "assay": "NCI-60 screen, Melanoma panel", "assay_type": "cell-based", "conditions": "Homo sapiens, SK-MEL-28, 48 h"}, "[7]": {"test_system": "IGROV1", "assay": "NCI-60 screen, Ovarian Cancer panel", "assay_type": "cell-based", "conditions": "Homo sapiens, IGROV-1; IGROV1, 48 h, SRB; read-out: GI50 (log10GI50) (converted)", "procedure": "Additional four, 10-fold or ½ log serial dilutions are made to provide a total of five drug concentrations plus control.\nFor adherent cells, the assay is terminated by the addition of cold TCA. Cells are fixed in situ by the gentle addition of 50 μl of cold 50% (w/v) TCA (final concentration, 10% TCA) and incubated for 60 minutes at 4° C. The supernatant is discarded, and the plates are washed five times with tap water and air dried. Sulforhodamine B (SRB) solution (100 μl) at 0.4% (w/v) in 1% acetic acid is added to each well, and plates are incubated for 10 minutes at room temperature. After staining, unbound dye is removed by washing five times with 1% acetic acid and the plates are air dried. […] Using the seven absorbance measurements [time zero, (Tz), control growth, (C), and test growth in the presence of drug at the five concentration levels (Ti)], the percentage growth is calculated at each of the drug concentrations levels.\nThree dose response parameters are calculated for each experimental agent. […] The drug concentration resulting in total growth inhibition (TGI) is calculated from Ti=Tz. […] Values are calculated for each of these three parameters if the level of activity is reached; however, if the effect is not reached or is exceeded, the value for that parameter is expressed as greater or less than the maximum or minimum concentration tested."}, "[8]": {"test_system": "TK-10", "assay": "NCI-60 screen, Renal Cancer panel", "assay_type": "cell-based", "conditions": "Homo sapiens, TK-10, 48 h"}, "[9]": {"test_system": "CAKI-1", "assay": "NCI-60 screen, Renal Cancer panel", "assay_type": "cell-based", "conditions": "Homo sapiens, CAKI-1, 48 h"}, "[10]": {"test_system": "SN12C", "assay": "NCI-60 screen, Renal Cancer panel", "assay_type": "cell-based", "conditions": "Homo sapiens, 48 h"}, "[11]": {"test_system": "NCI-H332M", "assay": "NCI-60 screen, Non-Small Cell Lung Cancer panel", "assay_type": "cell-based", "conditions": "Homo sapiens, 48 h"}, "[12]": {"test_system": "M14", "assay": "NCI-60 screen, Melanoma panel", "assay_type": "cell-based", "conditions": "Homo sapiens, M14, 48 h"}, "[13]": {"test_system": "unmodified MCF-7 human breast cancer cells", "assay": "LIF specificity assay, unmodified cells", "assay_type": "cell-based", "conditions": "Homo sapiens, MCF7, cytotoxicity"}, "[14]": {"test_system": "MOLT-4", "assay": "NCI-60 screen, Leukemia panel", "assay_type": "cell-based", "conditions": "Homo sapiens, MOLT-4, 48 h"}, "[15]": {"test_system": "MCF-7 (ER+ Breast Cancer)", "assay": "Short term (72 h) cytotoxicity assay", "assay_type": "cell-based", "conditions": "Homo sapiens, MCF7; MCF-7, 72 h cytotoxicity"}, "[16]": {"conditions": "read-out: GI50 (log10GI50) (converted)"}, "[17]": {"conditions": "read-out: LC50 (log10LC50) (converted)"}}}
{"molecule": "C#CC(F)(F)[C@]1(O)CCC2C3CCC4=CC(=O)CCC4=C3C(c3ccc(C4CC4)cc3)C[C@@]21C", "note": "(stereo partly drawn) [EC330, 17α-(1,1-difluoro-2-propyn-1-yl)-17β-hydroxy-11β-[4-p-(cyclopropyl)phenyl]estra-4,9-dien-3-one]", "values": [{"measurement": "IC50", "setting": "[1]", "value": 35, "unit": "nM"}, {"measurement": "IC50", "setting": "[2]", "value": 20, "unit": "nM"}, {"measurement": "GI50", "setting": "[3]; [16]", "value": 1860, "unit": "nM"}, {"measurement": "CC50", "setting": "[3]; [17]", "value": "> 100", "unit": "µM"}, {"measurement": "GI50", "setting": "[4]", "value": 14.1, "unit": "nM"}, {"measurement": "GI50", "setting": "[5]; [16]", "value": 1480, "unit": "nM"}, {"measurement": "CC50", "setting": "[5]; [17]", "value": "> 100", "unit": "µM"}, {"measurement": "GI50", "setting": "[6]; [16]", "value": 1780, "unit": "nM"}, {"measurement": "CC50", "setting": "[6]; [17]", "value": 7.76, "unit": "µM"}, {"measurement": "GI50", "setting": "[7]", "value": "< 10", "unit": "nM"}, {"measurement": "GI50", "setting": "[8]; [16]", "value": 2630, "unit": "nM"}, {"measurement": "CC50", "setting": "[8]; [17]", "value": "> 100", "unit": "µM"}, {"measurement": "GI50", "setting": "[9]; [16]", "value": 29.5, "unit": "nM"}, {"measurement": "CC50", "setting": "[9]; [17]", "value": "> 100", "unit": "µM"}, {"measurement": "GI50", "setting": "[10]; [16]", "value": 3.8, "unit": "µM"}, {"measurement": "CC50", "setting": "[10]; [17]", "value": "> 100", "unit": "µM"}, {"measurement": "GI50", "setting": "[11]; [16]", "value": 3.8, "unit": "µM"}, {"measurement": "CC50", "setting": "[11]; [17]", "value": "> 100", "unit": "µM"}, {"measurement": "GI50", "setting": "[12]; [16]", "value": 2750, "unit": "nM"}, {"measurement": "CC50", "setting": "[12]; [17]", "value": "> 100", "unit": "µM"}, {"measurement": "IC50", "setting": "[13]", "value": 250, "unit": "nM"}, {"measurement": "GI50", "setting": "[14]; [16]", "value": 1700, "unit": "nM"}, {"measurement": "CC50", "setting": "[14]; [17]", "value": "> 100", "unit": "µM"}, {"measurement": "IC50", "setting": "[15]", "value": 100, "unit": "nM"}]}
